In US9365583B2, “Substituted pyrazoles and uses thereof” (Genentech, Inc., priority 2013, dated 2016):
pKi: −log10 of the molar value.

biological target: T1, N-terminally GST-tagged DLK (catalytic domain amino acid 1-520) (Homo sapiens, UniProt Q12852); experiment: DLK TR-FRET inhibition assay; format: biochemical; details: 5 nM GST-DLK, 40 nM HIS-MKK4 K131M substrate, 30 μM ATP, 60 minutes at ambient temperature
T1 construct: N-terminally GST-tagged DLK (catalytic domain amino acid 1-520); purchased Carna Bioscience
T1 sequence (Q12852 1-520): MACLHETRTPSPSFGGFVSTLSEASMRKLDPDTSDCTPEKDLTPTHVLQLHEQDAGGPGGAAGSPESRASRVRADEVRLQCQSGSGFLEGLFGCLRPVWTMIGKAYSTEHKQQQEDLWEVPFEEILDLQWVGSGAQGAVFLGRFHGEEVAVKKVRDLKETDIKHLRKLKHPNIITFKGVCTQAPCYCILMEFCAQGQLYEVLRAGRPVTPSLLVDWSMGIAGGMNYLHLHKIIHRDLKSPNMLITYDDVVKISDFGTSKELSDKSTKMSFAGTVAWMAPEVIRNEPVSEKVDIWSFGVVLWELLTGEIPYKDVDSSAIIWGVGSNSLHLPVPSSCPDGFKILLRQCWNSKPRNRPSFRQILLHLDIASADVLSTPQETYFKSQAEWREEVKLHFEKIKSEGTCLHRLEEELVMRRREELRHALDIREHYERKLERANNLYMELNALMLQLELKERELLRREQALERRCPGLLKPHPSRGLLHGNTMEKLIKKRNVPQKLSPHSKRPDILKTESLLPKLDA
Outline: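 5 nM GST-DLK (aa 1-520), 40 nM HIS-MKK4 K131M and 30 μM ATP reacted 60 min at ambient temperature in HEPES pH 7.5 buffer with 10 mM MgCl2, compound 1:3 serially diluted from 20 uM. TR-FRET detection of phospho-MKK4 used Eu-cryptate anti-phospho-MKK4 plus D2 anti-HIS, read after 3 h (665/615 nm).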

| pKi | Compound |
| --- | --- |
| 9.15 | COC1CN([C@H]2C[C@@H]3[C@H](C2)[C@H]3c2cc(-c3cnc(N)c(OC(F)F)c3)nn2CC2CC2)C1 [compound 154, 5-(1-(cyclopropylmethyl)-5-((1R,3r,5S,6r)-3-(3-methoxyazetidin-1-yl)bicyclo[3.1.0]hexan-6-yl)-1H-pyrazol-3-yl)-3-(difluoromethoxy)pyridin-2-amine] |
| 8.19 | CC(C)n1nc(-c2cnc(N)c(OC(F)F)c2)cc1[C@H]1[C@@H]2C[C@H](N3CCC(F)(F)C3)C[C@@H]21 [compound 89, 3-(difluoromethoxy)-5-(5-((1R,3r,5S,6r)-3-(3,3-difluoropyrrolidin-1-yl)bicyclo[3.1.0]hexan-6-yl)-1-isopropyl-1H-pyrazol-3-yl) pyridin-2-amine] |
| 9.05 | CC(C)n1nc(-c2cnc(N)c(OC(F)F)c2)cc1[C@H]1[C@@H]2C[C@H](N3C4COCC3C4)C[C@@H]21 [compound 153, 5-(5-((1R,3r,5S,6r)-3-(3-oxa-6-azabicyclo[3.1.1]heptan-6-yl)bicyclo[3.1.0]hexan-6-yl)-1-isopropyl-1H-pyrazol-3-yl)-3-(difluoro-methoxy)pyridin-2-amine] |
| 8.68 | CC(C)n1nc(-c2cnc(N)c(OC(F)F)c2)cc1[C@H]1[C@@H]2C[C@@H](N3C[C@@H]4C[C@H]3CN4C)C[C@@H]21 [compound 206, 3-(difluoromethoxy)-5-(1-isopropyl-5-((1R,3s,5S,6S)-3-((1S,4S)-5-methyl-2,5-diazabicyclo [2.2.1]heptan-2-yl)bicyclo[3.1.0]hexan-6-yl)-1H-pyrazol-3-yl) pyridin-2-amine] |
| 8.43 | CC(C)n1nc(-c2cnc(N)c(OC(F)F)c2)cc1[C@H]1[C@@H]2C[C@@H](N3CCO[C@H](C)C3)C[C@@H]21 [compound 74, 3-(difluoromethoxy)-5-(1-isopropyl-5-((1R,3s,5S,6R)-3-((R)-2-methylmorpholino)bicyclo[3.1.0]hexan-6-yl)-1H-pyrazol-3-yl) pyridin-2-amine] |
| 8.85 | CC(C)n1nc(-c2cnc(N)c(C(F)(F)F)c2)cc1[C@H]1[C@@H]2C[C@@H](N3C[C@@H]4C[C@H]3CO4)C[C@@H]21 [compound 167, 5-(5-((1R,3s,5S,6S)-3-((1S,4S)-2-oxa-5-azabicyclo[2.2.1]heptan-5-yl)bicyclo[3.1.0]hexan-6-yl)-1-isopropyl-1H-pyrazol-3-yl)-3-(trifluoromethyl)pyridin-2-amine] |
| 8.80 | CO[C@@H]1CCN([C@H]2C[C@@H]3[C@H](C2)[C@H]3c2cc(-c3cnc(N)c(C(F)(F)F)c3)nn2C(C)C)C1 [compound 185, 5-(1-isopropyl-5-((1R,3r,5S,6R)-3-((R)-3-methoxypyrrolidin-1-yl)bicyclo[3.1.0]hexan-6-yl)-1H-pyrazol-3-yl)-3-(trifluoromethyl) pyridin-2-amine] |
| 6.91 | CC(C)n1nc(-c2cnc3cnn([C@H](C)c4ccccn4)c3c2)cc1[C@H]1[C@@H]2C[C@H](N3CCOCC3)C[C@@H]21 [compound 33, 4-((1R3R,5S,6r)-6-(1-isopropyl-3-(1-((R)-1-(pyridin-2-yl)ethyl)-1H-pyrazolo[4,3-b]pyridin-6-yl)-1H-pyrazol-5-yl)bicyclo[3.10]hexan-3-yl)morpholine] |
| 8.44 | CC(C)n1nc(-c2cnc(N)c(C(F)(F)F)c2)cc1[C@H]1[C@@H]2C[C@@H](N3C[C@@H]4C[C@H]3CN4C)C[C@@H]21 [compound 207, 5-(1-isopropyl-5-((1R,3s,5S,6S)-3-((1S,4S)-5-methyl-2,5-diazabicyclo [2.2.1]heptan-2-yl)bicyclo [3.1.0]hexan-6-yl)-1H-pyrazol-3-yl)-3-(trifluoromethyl) pyridin-2-amine] |
| 8.56 | COC1CN([C@@H]2C[C@@H]3[C@H](C2)[C@H]3c2cc(-c3cnc(N)c(OC(F)F)c3)nn2C(C)C)C1 [compound 62, 3-(difIuoromethoxy)-5-(1-isopropyl-5-((1R,3s,5S,6r)-3-(3-methoxy-azetidin-1-yl)bicyclo[3.1.0]hexan-6-yl)-1H-pyrazol-3-yl) pyridin-2-amine] |
| 7.87 | CC(C)n1nc(-c2cnc(N)c(C(F)(F)F)c2)cc1[C@@H]1[C@H]2CC3C(OCCN3C)[C@H]21 (mixture of isomers) [compound 156, (±)-5-(1-isopropyl-5-(4-methyl-octahydro-2H-cyclopropa[4,5]cyclopenta[1,2-b][1,4]oxazin-6-yl)-1H-pyrazol-3-yl)-3-(trifluoromethyl)pyridin-2-amine] |
| 8.84 | Nc1ncc(-c2cc([C@H]3[C@@H]4CC(O)C[C@@H]43)n(CC(F)F)n2)cc1OC(F)(F)F (stereo partly drawn) [compound 94, (1R,5S,6r)-6-(3-(6-amino-5-(trifluoromethoxy)pyridin-3-yl)-1-(2,2-difluoroethyl)-1H-pyrazol-5-yl)bicyclo[3.1.0]hexan-3-ol] |
| 8.35 | CC(C)n1nc(-c2cnc(N)c(C(F)(F)F)c2)cc1[C@H]1[C@@H]2C[C@H](N3CC4(CCCO4)C3)C[C@@H]21 [compound 227, 5-(5-((1R,3r,5S,6r)-3-(5-oxa-2-azaspiro[3.4]octan-2-yl)bicyclo [3.1.0]hexan-6-yl)-1-isopropyl-1H-pyrazol-3-yl)-3-(trifluoro-methyl)pyridin-2-amine] |
| 9.05 | CC(C)n1nc(-c2cnc(N)c(OC(F)F)c2)cc1[C@H]1[C@@H]2C[C@@H](N3CCN4CCCC4C3)C[C@@H]21 (single isomer, unassigned) [compound 258] |
| 8.84 | COC1CN([C@@H]2C[C@@H]3[C@H](C2)[C@H]3c2cc(-c3cnc(N)c(OC(F)(F)F)c3)nn2C(C)C)C1 [compound 38, 5-(1-isopropyl-5-((1R,3s,5S,6r)-3-(3-methoxyazetidin-1-yl)bicyclo[3.1.0]hexan-6-yl)-1H-pyrazol-3-yl)-3-(trifluoromethoxy) pyridin-2-amine] |
| 8.80 | CO[C@@H]1CCN([C@H]2C[C@@H]3[C@H](C2)[C@H]3c2cc(-c3cnc(N)c(OC(F)(F)F)c3)nn2C(C)C)C1 [compound 22, 5-(1-isopropyl-5-((1R,3r,5S,6R)-3-((R)-3-methoxypyrrolidin-1-yl)bicyclo[3.1.0]hexan-6-yl)-1H-pyrazol-3-yl)-3-(trifluoro-methoxy)pyridin-2-amine] |
